Counter-ions that a name gives are not always drawn.
System: healthy adult subjects
Assay: Example 11 ECG (QT/QTc) crossover study
Procedure: This was a single-dose, partially blinded, randomized, four-period, four-treatment, crossover study in which 24 healthy adult subjects received separate single doses of cocaine topical solution (8%), cocaine topical solution (4%), placebo, and moxifloxacin HCl tablet (400 mg) in four study periods. Each subject received a different treatment in each study period. Subjects received each of the following treatments in randomized fashion during the four treatment periods: (1) Treatment A: Cocaine hydrochloride, USP, topical solution, 8%; Dose=320 mg (80 mg/mL×4 mL); (2) Treatment B: Cocaine hydrochloride, USP, topical solution, 4%; Dose=160 mg (40 mg/mL×4 mL); (3) Treatment C: Placebo; and (4) Treatment D: AVELOX® (moxifloxacin hydrochloride); Dose=400 mg (1×400 mg tablet).
Treatments A, B, and C were blinded, while Treatment D was open label. Each drug administration was separated by a washout period of at least 4 days. […] Moxifloxacin HCl was orally administered along with approximately 240 mL (8 fl oz) of room temperature water.
A 25-hour continuous 12-lead ECG recording was performed on Day 1, starting 1 hour before dosing. At the designated time points, up to 10 replicate ECGs were extracted and intervals were measured using the High Precision QT technique. […] During protocol-specified ECG extraction windows, 10-second digital 12-lead ECG tracings were extracted from continuous recordings (preceded by a 10-minute supine rest period) at the following time points: predose (3 time points) and 20 minutes (end of cocaine dose; immediately after pledget removal), 40 minutes, and at 1, 1.25, 1.5, 2, 2.5, 3, 4, 6, 8, 12, and 24 hours after pledget insertion/moxifloxacin dosing.
The primary ECG endpoint was ΔQTcF. ΔQTcF is the QTc corrected for heart rate by the Fridericia method. The term “QTc”, as used herein, refers to the duration of the QT interval adjusted for the patient's heart rate.
The secondary ECG endpoints were: change-from-baseline heart rate (“HR”), time from beginning of the P-wave to the beginning of the next QRS complex (“PR”), deflections in the tracing of the electrocardiogram comprising the Q, R, and S waves that represent depolarization of the ventricles (“QRS”), time elapsed between two consecutive R waves (“RR”), and measure of the time in the tracing of the electrocardiogram between the start of the Q-wave and the end of the T-wave (“QT”); and T-wave morphological changes.

[1] = 400 mg, 20 min post-dose, QT/QTc Population
[2] = 400 mg, 40 min post-dose, QT/QTc Population
[3] = 400 mg, 1 hour post-dose, QT/QTc Population
[4] = 400 mg, 1.25 hour post-dose, QT/QTc Population
[5] = 400 mg, 1.5 hour post-dose, QT/QTc Population
[6] = 400 mg, 2 hours post-dose, QT/QTc Population
[7] = 400 mg, 3 hours post-dose, QT/QTc Population
[8] = 400 mg, 4 hours post-dose, QT/QTc Population
[9] = 400 mg, 6 hours post-dose, QT/QTc Population
[10] = 400 mg, 8 hours post-dose, QT/QTc Population
[11] = 400 mg, 12 hours post-dose, QT/QTc Population
[12] = 400 mg, 24 hours post-dose, QT/QTc Population
[13] = 400 mg, […] post-dose, QT/QTc Population
[14] = 20 min post-dose, QT/QTc Population
[15] = 40 min post-dose, QT/QTc Population
[16] = 1 hour post-dose, QT/QTc Population
[17] = 1.25 hour post-dose, QT/QTc Population
[18] = 1.5 hour post-dose, QT/QTc Population
[19] = 2 hours post-dose, QT/QTc Population
[20] = 3 hours post-dose, QT/QTc Population
[21] = 4 hours post-dose, QT/QTc Population
[22] = 6 hours post-dose, QT/QTc Population
[23] = 8 hours post-dose, QT/QTc Population
[24] = 12 hours post-dose, QT/QTc Population
[25] = 24 hours post-dose, QT/QTc Population
[26] = […] post-dose, QT/QTc Population

SMILES: COc1c(N2C[C@@H]3CCCN[C@@H]3C2)c(F)cc2c(=O)c(C(=O)O)cn(C3CC3)c12 [moxifloxacin HCl, moxifloxacin hydrochloride]
- peak ΔQTcF (400 mg oral, 4 hours post-dosing): 14.4 ms
- peak ΔΔQTcF (400 mg oral, 4 h post-dose): 15.2 ms
- ΔPR, change-from-baseline PR, LSMean [1]: 1.1 ms
- ΔQRS, change-from-baseline QRS, LSMean [1]: -0.5 ms
- ΔQT, change-from-baseline QT, LSMean [1]: -5.3 ms
- ΔRR, change-from-baseline RR, LSMean [1]: -18.8 ms
- ΔΔPR, placebo-corrected change-from-baseline PR, LSMean [1]: 2.1 ms
- ΔPR, change-from-baseline PR, LSMean [2]: 1.4 ms
- ΔQRS, change-from-baseline QRS, LSMean [2]: -0.5 ms
- ΔQT, change-from-baseline QT, LSMean [2]: 2.2 ms
- ΔRR, change-from-baseline RR, LSMean [2]: -15.8 ms
- ΔΔPR, placebo-corrected change-from-baseline PR, LSMean [2]: 0.1 ms
- ΔPR, change-from-baseline PR, LSMean [3]: 0.8 ms
- ΔQRS, change-from-baseline QRS, LSMean [3]: -0.4 ms
- ΔQT, change-from-baseline QT, LSMean [3]: 3.9 ms
- ΔRR, change-from-baseline RR, LSMean [3]: -24.5 ms
- ΔΔPR, placebo-corrected change-from-baseline PR, LSMean [3]: 0.1 ms
- ΔPR, change-from-baseline PR, LSMean [4]: 0.5 ms
- ΔQRS, change-from-baseline QRS, LSMean [4]: 0.2 ms
- ΔQT, change-from-baseline QT, LSMean [4]: 3.9 ms
- ΔRR, change-from-baseline RR, LSMean [4]: -35.1 ms
- ΔΔPR, placebo-corrected change-from-baseline PR, LSMean [4]: -0.2 ms
- ΔPR, change-from-baseline PR, LSMean [5]: -0.7 ms
- ΔQRS, change-from-baseline QRS, LSMean [5]: 0.0 ms
- ΔQT, change-from-baseline QT, LSMean [5]: 0.8 ms
- ΔRR, change-from-baseline RR, LSMean [5]: -58.5 ms
- ΔΔPR, placebo-corrected change-from-baseline PR, LSMean [5]: -1.9 ms
- ΔPR, change-from-baseline PR, LSMean [6]: 0.2 ms
- ΔQRS, change-from-baseline QRS, LSMean [6]: 0.0 ms
- ΔQT, change-from-baseline QT, LSMean [6]: 4.2 ms
- ΔRR, change-from-baseline RR, LSMean [6]: -33.8 ms
- ΔΔPR, placebo-corrected change-from-baseline PR, LSMean [6]: 0.2 ms
- ΔPR, change-from-baseline PR, LSMean [7]: -2.1 ms
- ΔQRS, change-from-baseline QRS, LSMean [7]: 0.0 ms
- ΔQT, change-from-baseline QT, LSMean [7]: 7.5 ms
- ΔRR, change-from-baseline RR, LSMean [7]: -41.1 ms
- ΔΔPR, placebo-corrected change-from-baseline PR, LSMean [7]: -2.1 ms
- ΔPR, change-from-baseline PR, LSMean [8]: -1.5 ms
- ΔQRS, change-from-baseline QRS, LSMean [8]: -0.0 ms
- ΔQT, change-from-baseline QT, LSMean [8]: 6.7 ms
- ΔRR, change-from-baseline RR, LSMean [8]: -121.3 ms
- ΔΔPR, placebo-corrected change-from-baseline PR, LSMean [8]: -1.4 ms
- ΔPR, change-from-baseline PR, LSMean [9]: -4.2 ms
- ΔQRS, change-from-baseline QRS, LSMean [9]: -0.5 ms
- ΔQT, change-from-baseline QT, LSMean [9]: -9.5 ms
- ΔRR, change-from-baseline RR, LSMean [9]: -121.3 ms
- ΔΔPR, placebo-corrected change-from-baseline PR, LSMean [9]: -2.6 ms
- ΔPR, change-from-baseline PR, LSMean [10]: -5.2 ms
- ΔQRS, change-from-baseline QRS, LSMean [10]: -0.5 ms
- ΔQT, change-from-baseline QT, LSMean [10]: -7.6 ms
- ΔRR, change-from-baseline RR, LSMean [10]: -88.8 ms
- ΔΔPR, placebo-corrected change-from-baseline PR, LSMean [10]: -1.4 ms
- ΔPR, change-from-baseline PR, LSMean [11]: -4.7 ms
- ΔQRS, change-from-baseline QRS, LSMean [11]: -0.0 ms
- ΔQT, change-from-baseline QT, LSMean [11]: -14.0 ms
- ΔRR, change-from-baseline RR, LSMean [11]: -151.8 ms
- ΔΔPR, placebo-corrected change-from-baseline PR, LSMean [11]: -3.9 ms
- ΔPR, change-from-baseline PR, LSMean [12]: -0.9 ms
- ΔQRS, change-from-baseline QRS, LSMean [12]: 0.1 ms
- ΔQT, change-from-baseline QT, LSMean [12]: -6.6 ms
- ΔRR, change-from-baseline RR, LSMean [12]: -65.8 ms
- ΔΔPR, placebo-corrected change-from-baseline PR, LSMean [12]: 1.7 ms
- T-wave morphology treatment emergent changes: Biphasic, Subject count (400 mg, QT/QTc Population): 0
- T-wave morphology treatment emergent changes: Biphasic, Timepoint count (400 mg, QT/QTc Population): 0
- T-wave morphology treatment emergent changes: Flat, Subject count (400 mg, QT/QTc Population): 0
- T-wave morphology treatment emergent changes: Flat, Timepoint count (400 mg, QT/QTc Population): 0
- T-wave morphology treatment emergent changes: Normal (−), Subject count (400 mg, QT/QTc Population): 0
- T-wave morphology treatment emergent changes: Normal (−), Timepoint count (400 mg, QT/QTc Population): 0
- T-wave morphology treatment emergent changes: Notched (+), Subject count (400 mg, QT/QTc Population): 0
- T-wave morphology treatment emergent changes: Notched (+), Timepoint count (400 mg, QT/QTc Population): 0
- T-wave morphology treatment emergent changes: Notched (−), Subject count (400 mg, QT/QTc Population): 0
- T-wave morphology treatment emergent changes: Notched (−), Timepoint count (400 mg, QT/QTc Population): 0
- ΔPR, change-from-baseline PR, LSMean [13]: -0.8 ms
- ΔQRS, change-from-baseline QRS, LSMean [13]: -0.3 ms
- ΔQT, change-from-baseline QT, LSMean [13]: 6.1 ms
- ΔRR, change-from-baseline RR, LSMean [13]: -37.0 ms
- ΔΔPR, placebo-corrected change-from-baseline PR, LSMean [13]: 0.5 ms
- ΔHR (change-from-baseline HR), LSMean [14]: 1.0 bpm
- ΔQTcF (change-from-baseline QTcF), LSMean [14]: -3.1 ms
- ΔΔHR (placebo-corrected change-from-baseline HR), LSMean [14]: −4.4 bpm
- ΔΔQTcF (placebo-corrected change-from-baseline QTcF), LSMean [14]: -0.1 ms
- ΔHR (change-from-baseline HR), LSMean [15]: 1.3 bpm
- ΔQTcF (change-from-baseline QTcF), LSMean [15]: 4.4 ms
- ΔΔHR (placebo-corrected change-from-baseline HR), LSMean [15]: 0.4 bpm
- ΔΔQTcF (placebo-corrected change-from-baseline QTcF), LSMean [15]: 5.4 ms
- ΔHR (change-from-baseline HR), LSMean [16]: 1.8 bpm
- ΔQTcF (change-from-baseline QTcF), LSMean [16]: 7.4 ms
- ΔΔHR (placebo-corrected change-from-baseline HR), LSMean [16]: 1.7 bpm
- ΔΔQTcF (placebo-corrected change-from-baseline QTcF), LSMean [16]: 7.8 ms
- ΔHR (change-from-baseline HR), LSMean [17]: 2.6 bpm
- ΔQTcF (change-from-baseline QTcF), LSMean [17]: 9.1 ms
- ΔΔHR (placebo-corrected change-from-baseline HR), LSMean [17]: 2.7 bpm
- ΔΔQTcF (placebo-corrected change-from-baseline QTcF), LSMean [17]: 8.7 ms
- ΔHR (change-from-baseline HR), LSMean [18]: 3.9 bpm
- ΔQTcF (change-from-baseline QTcF), LSMean [18]: 8.4 ms
- ΔΔHR (placebo-corrected change-from-baseline HR), LSMean [18]: 3.8 bpm
- ΔΔQTcF (placebo-corrected change-from-baseline QTcF), LSMean [18]: 7.9 ms
- ΔHR (change-from-baseline HR), LSMean [19]: 2.3 bpm
- ΔQTcF (change-from-baseline QTcF), LSMean [19]: 9.0 ms
- ΔΔHR (placebo-corrected change-from-baseline HR), LSMean [19]: 3.1 bpm
- ΔΔQTcF (placebo-corrected change-from-baseline QTcF), LSMean [19]: 8.9 ms
- ΔHR (change-from-baseline HR), LSMean [20]: 2.6 bpm
- ΔQTcF (change-from-baseline QTcF), LSMean [20]: 13.2 ms
- ΔΔHR (placebo-corrected change-from-baseline HR), LSMean [20]: 2.5 bpm
- ΔΔQTcF (placebo-corrected change-from-baseline QTcF), LSMean [20]: 13.0 ms
- ΔHR (change-from-baseline HR), LSMean [21]: 3.4 bpm
- ΔQTcF (change-from-baseline QTcF), LSMean [21]: 14.4 ms
- ΔΔHR (placebo-corrected change-from-baseline HR), LSMean [21]: 1.6 bpm
- ΔΔQTcF (placebo-corrected change-from-baseline QTcF), LSMean [21]: 15.2 ms
- ΔHR (change-from-baseline HR), LSMean [22]: 8.2 bpm
- ΔQTcF (change-from-baseline QTcF), LSMean [22]: 7.2 ms
- ΔΔHR (placebo-corrected change-from-baseline HR), LSMean [22]: 2.5 bpm
- ΔΔQTcF (placebo-corrected change-from-baseline QTcF), LSMean [22]: 10.9 ms
- ΔHR (change-from-baseline HR), LSMean [23]: 5.7 bpm
- ΔQTcF (change-from-baseline QTcF), LSMean [23]: 4.4 ms
- ΔΔHR (placebo-corrected change-from-baseline HR), LSMean [23]: 1.6 bpm
- ΔΔQTcF (placebo-corrected change-from-baseline QTcF), LSMean [23]: 11.5 ms
- ΔHR (change-from-baseline HR), LSMean [24]: 10.7 bpm
- ΔQTcF (change-from-baseline QTcF), LSMean [24]: 7.3 ms
- ΔΔHR (placebo-corrected change-from-baseline HR), LSMean [24]: 1.5 bpm
- ΔΔQTcF (placebo-corrected change-from-baseline QTcF), LSMean [24]: 9.6 ms
- ΔHR (change-from-baseline HR), LSMean [25]: 4.2 bpm
- ΔQTcF (change-from-baseline QTcF), LSMean [25]: 2.4 ms
- ΔΔHR (placebo-corrected change-from-baseline HR), LSMean [25]: −0.0 bpm
- ΔΔQTcF (placebo-corrected change-from-baseline QTcF), LSMean [25]: 7.5 ms
- ΔHR (change-from-baseline HR), LSMean [26]: 2.6 bpm
- ΔQTcF (change-from-baseline QTcF), LSMean [26]: 11.5 ms
- ΔΔHR (placebo-corrected change-from-baseline HR), LSMean [26]: 0.9 bpm
- ΔΔQTcF (placebo-corrected change-from-baseline QTcF), LSMean [26]: 9.8 ms
